Measurements taken from US20200030355A1, “COMBINATION THERAPY FOR TREATING CANCER” (Epizyme, Inc., priority 2014, published 2020).

Legend:
[1] = tested on: MOLM-13 (MLL-AF9); experiment: EPZ-5676 7-day pre-treatment, then second compound 72 hours, growth inhibition GI100 shift; primary screen and retest (Example 7); assay type: cell-based, human; conditions: second compound 72 hours; for Combination with EPZ-5676, MOLM-13 (MLL-AF9) Retest: 150 nM EPZ-5676 7-day pre-treatment, Cell Titer Glo; for Combination with EPZ-5676, MOLM-13 (MLL-AF9) Primary screen: 300 nM EPZ-5676 7-day pre-treatment, ATPLite
Procedure: (§1) Cells were then equilibrated in incubators for 24 hours before treatment with a second compound. Treated assay plates were incubated with a second compound for 72 hours. After this time, plates were developed for endpoint analysis using ATPLite to measure ATP content, which is used as an indicator of cell viability.
(§2) Cells were then treated with a second compound for 72 hours. After this time, plates were developed for endpoint analysis using Cell Titer Glo to measure ATP content, which is used as an indicator of cell viability.
(§3) “N/D” means the GI100 of the second compound could not be determined for both conditions and “-” means not tested.
(§4) Growth Inhibition (GI) as a measure of cell viability: The cell viability of vehicle was measured at the time of dosing the second agent (T0) and after seventy-two hours (T72). […] A GI 200% represents complete death of all cells in the culture well. Compounds reaching an activity plateau of GI 200% are considered cytotoxic. GI is calculated by applying the following test and equation: […]
(§5) where T is the signal measure for a test article, V is the vehicle-treated control measure, and V0 is the vehicle control measure at time zero.

[2] = tested on: SKM-1 (non-MLLr); experiment: as above; assay type: cell-based, human; conditions: 300 nM EPZ-5676 7-day pre-treatment; for Combination with EPZ-5676, SKM-1 (non-MLLr) Primary screen: ATPLite; for Combination with EPZ-5676, SKM-1 (non-MLLr) Retest: Cell Titer Glo
Procedure: as §1, §2, §3, §4, §5

[3] = tested on: OCI-AML-4 (MLL-ENL); experiment: as above; assay type: cell-based; conditions: 300 nM EPZ-5676 7-day pre-treatment, second compound 72 hours; for Combination with EPZ-5676, OCI-AML-4 (MLL-ENL) Primary screen: ATPLite; for Combination with EPZ-5676, OCI-AML-4 (MLL-ENL) Retest: Cell Titer Glo
Procedure: as §1, §2, §3, §4, §5

[4] = tested on: MOLM-13 cells; experiment: EPZ-5676 300 nM 7-day pre-treatment, then second compound 72 hours, ATPLite, IC50 shift (Example 6); assay type: cell-based, human; conditions: 300 nM EPZ-5676 or DMSO 7-day pre-treatment, then 2nd compound 72 hours, Synergy = IC50 of 2nd compound decreased by 2-fold or more vs DMSO control
Procedure: as §1
(§6) “N/D” means that IC50 of the second compound could not be determined for both conditions.

[5] = tested on: SKM-1 cells; experiment: as above; assay type: cell-based, human; conditions: SKM-1 cells; 300 nM EPZ-5676 or DMSO 7-day pre-treatment, then 2nd compound 72 hours, ATPLite; Synergy = IC50 of 2nd compound decreased by 2-fold or more vs DMSO control
Procedure: as §1, §6

[6] = tested on: MOLM-13 (MLL-AF9); experiment: Combination proliferation study with Compound A2 (ATP/CellTiter-Glo, Chou-Talalay combination index); assay type: cell-based, human; conditions: 7 Day Cotreatment Model, Table 5
Procedure: The acute myelogenous leukemia cell lines MV4-11 (MLL-AF4) and MOLM-13 (MLL-AF9) were obtained from American Type Culture Collection (ATCC; Rockville, Md.) and Deutsche Sammlung von Mikroorganismen and Zellkulturen (DSMZ; Braunschweig, Germany) respectively.
(§7) Studies were performed using MLL-rearranged cell lines in vitro to evaluate the anti-proliferative effect of a combination of two agents together on cell growth. Initial proliferation studies were performed to determine the IC50 of a given compound in each cell line. The cell counts were measured by ATP quantitation using the Promega Cell Titer Glo kit and luminescence values corresponded to the amount of ATP in a given well.
Compounds were evaluated for synergy in the co-treatment phase by testing the compounds in a concentration range which was bracketed around their IC50 values. The compounds were plated to a 96 well plate in a matrix format (FIG. 3) which includes increasing concentrations of each drug in the combination in a constant ratio, in addition to the effect of each compound alone in the study. Cells were seeded and grown in the log-linear phase for 3 or 7 days in the co-treatment phase. Minimum inhibition (DMSO alone) controls were used in each plate to calculate fraction affected (Fa) of a test well. DMSO concentration was kept at 0.1% v/v.
The drug combination analysis was performed utilizing the Chou-Talalay method Synergy was determined using the software package Calcusyn by Biosoft. The combination index (CI) is a quantitative term used to describe the level of synergy or antagonism in a given test system. A combination index less than one indicates synergy, and a CI greater than one indicates antagonism. Further, strong synergism is achieved when the CI value falls below 0.3.
Graphs representing values of combination index (CI) versus Fractional effect (Fa) known as Fa-CI plots were generated and synergy was evaluated. Drug synergy was statistically defined by CI values less than 1, antagonism by CI>1 and additive effect by CI equal to 1.
Graphs representing values of combination index (CI) versus Fractional effect (Fa) known as Fa-CI plots were generated and synergy was evaluated. Drug synergy was statistically defined by CI values less than 1, antagonism by CI>1 and additive effect by CI equal to 1. […]
Cell viability was measured via ATP content using CellTiter-Glo® (Promega).
as §7, with “Proliferation studies” for “Studies”, “MOLM-13, MV4-11 and SKM-1” for “MLL-rearranged”, “cancer cell killing” for “anti-proliferative”, “IC50 values” for “IC50”, “correspond” for “corresponded”, “well. […]” for “well.”
Compounds evaluated for synergy in the co-treatment phase were tested in a range which was bracketed around the IC50's.

SMILES | Combination with EPZ-5676, MOLM-13 (MLL-AF9) Retest [1] | Combination with EPZ-5676, MOLM-13 (MLL-AF9) Primary screen [1] | Combination with EPZ-5676, SKM-1 (non-MLLr) Primary screen [2] | Combination with EPZ-5676, SKM-1 (non-MLLr) Retest [2] | Combination with EPZ-5676, OCI-AML-4 (MLL-ENL) Primary screen [3] | Combination with EPZ-5676, OCI-AML-4 (MLL-ENL) Retest [3] | MOLM-13 (summary of combination study: EPZ-5676 + 2nd compound) [4] | SKM-1 (summary of combination study: EPZ-5676 + 2nd compound) [5] | Combination with Compound A2, MOLM13 [6]
Cn1cnc2c(F)c(Nc3ccc(Br)cc3Cl)c(C(=O)NOCCO)cc21 [Selumetinib (AZD6244), Selumetinib] | Synergy (considered synergistic if the GI100 (Growth inhibition 100) value of the second compound decreased by 2-fold or more when EPZ-5676 was added as compared to the DMSO control) | Synergy (considered synergistic if the GI100 (Growth inhibition 100) value of the second compound decreased by 2-fold or more when EPZ-5676 was added as compared to the DMSO control) | Synergy (considered synergistic if the GI100 (Growth inhibition 100) value of the second compound decreased by 2-fold or more when EPZ-5676 was added as compared to the DMSO control) | Synergy (considered synergistic if the GI100 (Growth inhibition 100) value of the second compound decreased by 2-fold or more when EPZ-5676 was added as compared to the DMSO control) | Synergy (considered synergistic if the GI100 (Growth inhibition 100) value of the second compound decreased by 2-fold or more when EPZ-5676 was added as compared to the DMSO control) | Synergy (considered synergistic if the GI100 (Growth inhibition 100) value of the second compound decreased by 2-fold or more when EPZ-5676 was added as compared to the DMSO control) | Synergy (considered synergistic if the IC50 value of the second compound decreased by 2-fold or more when EPZ-5676 was added as compared to the DMSO control) | – | –
CNC(=O)c1cc(Oc2ccc(NC(=O)Nc3ccc(Cl)c(C(F)(F)F)c3)cc2)ccn1 [Sorafenib] | Synergy (considered synergistic if the GI100 (Growth inhibition 100) value of the second compound decreased by 2-fold or more when EPZ-5676 was added as compared to the DMSO control) | Synergy (considered synergistic if the GI100 (Growth inhibition 100) value of the second compound decreased by 2-fold or more when EPZ-5676 was added as compared to the DMSO control) | – | – | – | – | Synergy (considered synergistic if the IC50 value of the second compound decreased by 2-fold or more when EPZ-5676 was added as compared to the DMSO control) | – | –
Cn1c(Nc2ccc(C(F)(F)F)cc2)nc2cc(Oc3ccnc(-c4ncc(C(F)(F)F)[nH]4)c3)ccc21 [RAF265] | – | Synergy (considered synergistic if the GI100 (Growth inhibition 100) value of the second compound decreased by 2-fold or more when EPZ-5676 was added as compared to the DMSO control) | – | – | – | – | – | – | –
Cn1cnc2c(F)c(Nc3ccc(Br)cc3F)c(C(=O)NOCCO)cc21 [Binimetinib (MEK-162), Binimetinib] | Synergy (considered synergistic if the GI100 (Growth inhibition 100) value of the second compound decreased by 2-fold or more when EPZ-5676 was added as compared to the DMSO control) | – | – | Synergy (considered synergistic if the GI100 (Growth inhibition 100) value of the second compound decreased by 2-fold or more when EPZ-5676 was added as compared to the DMSO control) | – | Synergy (considered synergistic if the GI100 (Growth inhibition 100) value of the second compound decreased by 2-fold or more when EPZ-5676 was added as compared to the DMSO control) | – | – | –
Cn1nccc1Nc1nccc(-c2ccn([C@H](CO)c3ccc(Cl)c(F)c3)c(=O)c2)n1 [GDC0994] | – | – | – | Synergy (considered synergistic if the GI100 (Growth inhibition 100) value of the second compound decreased by 2-fold or more when EPZ-5676 was added as compared to the DMSO control) | – | Synergy (considered synergistic if the GI100 (Growth inhibition 100) value of the second compound decreased by 2-fold or more when EPZ-5676 was added as compared to the DMSO control) | – | – | –
NC1(c2ccc(-c3nc4ccn5c(=O)[nH]nc5c4cc3-c3ccccc3)cc2)CCC1 [MK2206] | – | – | – | – | – | – | Synergy (considered synergistic if the IC50 value of the second compound decreased by 2-fold or more when EPZ-5676 was added as compared to the DMSO control) | Synergy (considered synergistic if the IC50 value of the second compound decreased by 2-fold or more when EPZ-5676 was added as compared to the DMSO control) | Additive (additive effect by CI equal to 1)
O=C(Nc1ccc2[nH]nc(-c3ccncc3)c2c1)[C@@H]1CCN(CC(=O)N2CCN(c3ccc(-c4ncccn4)cc3)CC2)C1 [SCH772984] | Synergy (considered synergistic if the GI100 (Growth inhibition 100) value of the second compound decreased by 2-fold or more when EPZ-5676 was added as compared to the DMSO control) | Synergy (considered synergistic if the GI100 (Growth inhibition 100) value of the second compound decreased by 2-fold or more when EPZ-5676 was added as compared to the DMSO control) | Synergy (considered synergistic if the GI100 (Growth inhibition 100) value of the second compound decreased by 2-fold or more when EPZ-5676 was added as compared to the DMSO control) | Synergy (considered synergistic if the GI100 (Growth inhibition 100) value of the second compound decreased by 2-fold or more when EPZ-5676 was added as compared to the DMSO control) | Synergy (considered synergistic if the GI100 (Growth inhibition 100) value of the second compound decreased by 2-fold or more when EPZ-5676 was added as compared to the DMSO control) | Synergy (considered synergistic if the GI100 (Growth inhibition 100) value of the second compound decreased by 2-fold or more when EPZ-5676 was added as compared to the DMSO control) | Synergy (considered synergistic if the IC50 value of the second compound decreased by 2-fold or more when EPZ-5676 was added as compared to the DMSO control) | Synergy (considered synergistic if the IC50 value of the second compound decreased by 2-fold or more when EPZ-5676 was added as compared to the DMSO control) | –
CC(C)Nc1cc(-c2c[nH]c(C(=O)N[C@H](CO)c3cccc(Cl)c3)c2)c(Cl)cn1 [Ulixertinib] | Synergy (considered synergistic if the GI100 (Growth inhibition 100) value of the second compound decreased by 2-fold or more when EPZ-5676 was added as compared to the DMSO control) | – | – | Synergy (considered synergistic if the GI100 (Growth inhibition 100) value of the second compound decreased by 2-fold or more when EPZ-5676 was added as compared to the DMSO control) | – | Synergy (considered synergistic if the GI100 (Growth inhibition 100) value of the second compound decreased by 2-fold or more when EPZ-5676 was added as compared to the DMSO control) | – | – | –
